Data reported in the CheMixHub viscosity set.

Experiment: xn = mol fraction of the nth substance listed

Nc1cccc(Cl)c1 + Cc1ccccc1Cl
viscosity [mPa·s], 100 kPa
Conditions | x1 = 0.0744 | x1 = 0.1659 | x1 = 0.2575 | x1 = 0.3522 | x1 = 0.4708 | x1 = 0.5714 | x1 = 0.6762 | x1 = 0.7838 | x1 = 0.8902
303.15 K | 1.146 | 1.462 | 1.777 | 2.1 | 2.502 | 2.84 | 3.191 | 3.548 | 3.898
308.15 K | 1.044 | 1.329 | 1.614 | 1.906 | 2.267 | 2.573 | 2.888 | 3.209 | 3.523
313.15 K | 0.9401 | 1.196 | 1.45 | 1.71 | 2.033 | 2.304 | 2.585 | 2.871 | 3.149
318.15 K | 0.8312 | 1.059 | 1.283 | 1.512 | 1.797 | 2.036 | 2.283 | 2.534 | 2.778

CCC(=O)O + Cc1ccccc1N
viscosity [mPa·s], 100 kPa
Conditions | x2 = 0.0977 | x2 = 0.1983 | x2 = 0.2728 | x2 = 0.3622 | x2 = 0.4952 | x2 = 0.5997 | x2 = 0.6763 | x2 = 0.7449 | x2 = 0.8891
303.15 K | 1.2 | 1.45 | 1.64 | 1.85 | 2.16 | 2.4 | 2.57 | 2.72 | 3.03
308.15 K | 1.1 | 1.31 | 1.47 | 1.65 | 1.91 | 2.11 | 2.25 | 2.38 | 2.64
313.15 K | 1 | 1.19 | 1.32 | 1.48 | 1.71 | 1.88 | 2 | 2.11 | 2.33
318.15 K | 0.91 | 1.07 | 1.18 | 1.32 | 1.51 | 1.66 | 1.76 | 1.85 | 2.03

Nc1cccc(Cl)c1 + Clc1ccccc1
Conditions | viscosity [mPa·s]
308.15 K, 100 kPa, x1 = 0.3821 | 2.145

O=[N+]([O-])[O-].[Li+] + N
293.15 K, 101 kPa
Conditions | viscosity [mPa·s]
x1 = 0.026 | 0.168
x1 = 0.059 | 0.228
x1 = 0.096 | 0.32
x1 = 0.174 | 0.602

CCC(=O)O + NC=O
viscosity [mPa·s]
Conditions | 298.15 K | 303.15 K | 308.15 K | 313.15 K
101 kPa, x2 = 0.1002 | 2.15 | – | – | 1.52
101 kPa, x2 = 0.1949 | 3.368 | – | – | 2.231
101 kPa, x2 = 0.2992 | 4.445 | – | – | 2.877
101 kPa, x2 = 0.3979 | 5.67 | – | – | 3.546
101 kPa, x2 = 0.4976 | 6.48 | – | – | 4.16
101 kPa, x2 = 0.5987 | 6.98 | – | – | 4.528
101 kPa, x2 = 0.7338 | 7.19 | – | – | 4.708
101 kPa, x2 = 0.8115 | 6.92 | – | – | 4.48
101 kPa, x2 = 0.9101 | 5.59 | – | – | 3.551
101 kPa, x2 = 0.976 | 3.838 | – | – | –
101.33 kPa, x2 = 0.0769 | 1.4 | 1.28 | 1.19 | 1.09
101.33 kPa, x2 = 0.1507 | 1.89 | 1.7 | 1.57 | 1.46
101.33 kPa, x2 = 0.2323 | 2.54 | 2.25 | 2.05 | 1.89
101.33 kPa, x2 = 0.3109 | 3.21 | 2.78 | 2.5 | 2.27
101.33 kPa, x2 = 0.393 | 3.83 | 3.28 | 2.94 | 2.64
101.33 kPa, x2 = 0.4098 | 3.92 | 3.37 | 3.01 | 2.69
101.33 kPa, x2 = 0.4649 | 4.24 | 3.62 | 3.23 | 2.89
101.33 kPa, x2 = 0.5404 | 4.48 | 3.83 | 3.41 | 3.03
101.33 kPa, x2 = 0.6138 | 4.8 | 4.06 | 3.6 | 3.2
101.33 kPa, x2 = 0.6916 | 4.7 | 4.01 | 3.57 | 3.18
101.33 kPa, x2 = 0.7633 | 4.49 | 3.84 | 3.43 | 3.07
101.33 kPa, x2 = 0.8461 | 4.22 | 3.63 | 3.26 | 2.93
101.33 kPa, x2 = 0.9226 | 3.75 | 3.25 | 2.94 | 2.66

Nc1cccc(Cl)c1 + NCCO
Conditions | viscosity [mPa·s]
308.15 K, 100 kPa, x1 = 0.3619 | 8.885

CCC(=O)O + Nc1ccccc1
Conditions | viscosity [mPa·s]
298.15 K, 101 kPa, x1 = 0.0996 | 4.218
298.15 K, 101 kPa, x1 = 0.2015 | 4.652
298.15 K, 101 kPa, x1 = 0.2966 | 5.177
298.15 K, 101 kPa, x1 = 0.388 | 5.87
298.15 K, 101 kPa, x1 = 0.4955 | 6.898
298.15 K, 101 kPa, x1 = 0.5962 | 7.775
298.15 K, 101 kPa, x1 = 0.716 | 7.294
298.15 K, 101 kPa, x1 = 0.7994 | 5.282
298.15 K, 101 kPa, x1 = 0.895 | 2.477
308.15 K, 101.33 kPa, x1 = 0.1243 | 2.912
308.15 K, 101.33 kPa, x1 = 0.2382 | 3.203
308.15 K, 101.33 kPa, x1 = 0.3507 | 3.59
308.15 K, 101.33 kPa, x1 = 0.4545 | 3.971
308.15 K, 101.33 kPa, x1 = 0.5568 | 4.468
308.15 K, 101.33 kPa, x1 = 0.6544 | 4.762
308.15 K, 101.33 kPa, x1 = 0.7452 | 4.169
308.15 K, 101.33 kPa, x1 = 0.7903 | 3.402
308.15 K, 101.33 kPa, x1 = 0.8345 | 2.792
308.15 K, 101.33 kPa, x1 = 0.8774 | 2.008
308.15 K, 101.33 kPa, x1 = 0.918 | 1.561
308.15 K, 101.33 kPa, x1 = 0.9595 | 1.168
